Tests used:
Assay type in all cases: cell-based
Fusarium oxysporum = test: Plate medium fungicidal assay, cucumber fusarium wilt F.c (Experimental Example 5)
Procedure: In this Experimental Example, the fungicidal effects of the inventive compounds on various phytopathogenic fungi for plants and hazardous microorganism for industrial materials were examined by the methods described below. Each inventive compound was dissolved in 2 ml of dimethyl sulfoxide. 0.6 ml of this solution was added to 60 nil of a PDA medium (potato dextrose agar medium) at about 60 degrees C., which was mixed thoroughly in a 100-ml conical flask, and poured into a dish, where it was solidified, thereby obtaining a plate medium containing the inventive compound at 50 mg/L and 5 mg/L. On the other hand, a subject microorganism previously cultured on a plate medium was cut out using a cork borer whose diameter was 4 mm, and inoculated to the test compound-containing plate medium described above. […] The growth degree of the microorganism on the test compound-containing plate medium thus observed was compared with the growth degree of the microorganism in the untreated group, and % mycelial growth inhibition was calculated by the following equation. R=100(dc−dt)/dc wherein R=% mycelial extension inhibition, dc=flora diameter in untreated plate, dt=flora diameter in treated plate. The results obtained as described above were evaluated as one of the 5 grades according to the following criteria. […] Cucumber fusarium wilt (Fusarium oxysporum) F.c

Curvularia sp. = test: Plate medium assay, industrial material deteriorating microorganism, Curvularia (Experimental Example 5); conditions: treatment at 50 mg/l, PDA plate medium, read-out: growth inhibition grade
Procedure: (§1) In this Experimental Example, the fungicidal effects of the inventive compounds on various phytopathogenic fungi for plants and hazardous microorganism for industrial materials were examined by the methods described below. Each inventive compound was dissolved in 2 ml of dimethyl sulfoxide. 0.6 ml of this solution was added to 60 nil of a PDA medium (potato dextrose agar medium) at about 60 degrees C., which was mixed thoroughly in a 100-ml conical flask, and poured into a dish, where it was solidified, thereby obtaining a plate medium containing the inventive compound at 50 mg/L and 5 mg/L. On the other hand, a subject microorganism previously cultured on a plate medium was cut out using a cork borer whose diameter was 4 mm, and inoculated to the test compound-containing plate medium described above. […] The growth degree of the microorganism on the test compound-containing plate medium thus observed was compared with the growth degree of the microorganism in the untreated group, and % mycelial growth inhibition was calculated by the following equation. R=100(dc-dt)/dc wherein R=% mycelial extension inhibition, dc=flora diameter in untreated plate, dt=flora diameter in treated plate. The results obtained as described above were evaluated as one of the 5 grades according to the following criteria.

[1] = system: Pseudocercoporella herpotrichoides; test: Plate medium fungicidal assay, wheat eye spot P.h (Experimental Example 5)
Procedure: as §1, with “R=100(dc−dt)/dc” for “R=100(dc-dt)/dc”, “criteria. […] Wheat eye spot (Pseudocercoporella herpotrichoides) P.h” for “criteria.”

Coriolus versicolor = test: Plate medium assay, wood denaturing microorganism Kawaratake (Experimental Example 5); conditions: Trametes versicolor; treatment at 50 mg/l, PDA plate medium; read-out: growth inhibition grade
Procedure: as §1

Alternaria alternata = test: Plate medium fungicidal assay, Alternaria blotch A.m (Experimental Example 5)
Procedure: as §1, with “R=100(dc−dt)/dc” for “R=100(dc-dt)/dc”, “criteria. […] Alternaria blotch (Alternaria alternata) A.m” for “criteria.”

Rhynchosporium secalis = test: Plate medium fungicidal assay, barley leaf blotch R.sec (Experimental Example 5)
Procedure: as §1, with “R=100(dc−dt)/dc” for “R=100(dc-dt)/dc”, “criteria. […] Barley leaf blotch (Rhynchosporium secalis) R.sec” for “criteria.”

Aureobasidium sp. = test: Plate medium assay, industrial material deteriorating microorganism, Aureobasidium (Experimental Example 5); conditions: treatment at 50 mg/l, PDA plate medium, read-out: growth inhibition grade
Procedure: as §1

Pyricularia oryzae = test: microbe, parasite or virus in culture
Cladosporium sp. = test: Plate medium assay, industrial material deteriorating microorganism, Cladosporium (Experimental Example 5); conditions: treatment at 50 mg/l, PDA plate medium, read-out: growth inhibition grade
Procedure: as §1

[2] = Pyricularia oryzae, read-out: growth inhibition grade P.o
[3] = plate medium containing compound at 5 mg/L
[4] = plate medium containing compound at 50 mg/L

| Compound | Growth inhibition grade, F.c (Fusarium oxysporum; [3]) | Growth inhibition grade, F.c (Fusarium oxysporum; [4]) | Growth inhibition grade, P.h [1, 3] | Growth inhibition grade, P.h [1, 4] | Growth inhibition grade, A.m (Alternaria alternata; [3]) | Growth inhibition grade, A.m (Alternaria alternata; [4]) | Growth inhibition grade, R.sec (Rhynchosporium secalis; [3]) | Growth inhibition grade, R.sec (Rhynchosporium secalis; [4]) | Growth inhibition grade, P.o (Pyricularia oryzae; [3]) | Growth inhibition grade, P.o (Pyricularia oryzae; [4]) | Growth inhibition grade, F.c (Fusarium oxysporum; plate medium, 5 mg/L) | Growth inhibition grade, F.c (Fusarium oxysporum; plate medium, 50 mg/L) | Growth inhibition grade, P.h ([1]; plate medium, 5 mg/L) | Growth inhibition grade, P.h ([1]; plate medium, 50 mg/L) | Growth inhibition grade, A.m (Alternaria alternata; plate medium, 5 mg/L) | Growth inhibition grade, A.m (Alternaria alternata; plate medium, 50 mg/L) | Growth inhibition grade, R.sec (Rhynchosporium secalis; plate medium, 5 mg/L) | Growth inhibition grade, R.sec (Rhynchosporium secalis; plate medium, 50 mg/L) | Growth inhibition grade, P.o (Pyricularia oryzae; plate medium, 5 mg/L) | Growth inhibition grade, P.o (Pyricularia oryzae; plate medium, 50 mg/L) | also measured |
| --- | --- | --- | --- | --- | --- | --- | --- | --- | --- | --- | --- | --- | --- | --- | --- | --- | --- | --- | --- | --- | --- |
| CC(Cl)=C[C@]1(C)CC[C@@H](Cc2ccc(Cl)cc2)[C@]1(O)Cn1cncn1 (racemic) [Compound I-115, (1RS,2SR,5SR)-5-(4-chlorobenzyl)-2-(2-chloropropenyl)-2-methyl-1-(1H-1,2,4-triazol-1-ylmethyl)cyclopentanol] | – | – | – | – | – | – | – | – | – | – | – | – | – | – | – | – | – | – | – | – | inhibition at 5 µg/mL (Fusarium oxysporum; Fusarium oxysporum, plate medium, 5 mg/L, read-out: growth inhibition grade F.c): > 80%; inhibition at 50 µg/mL (Fusarium oxysporum; Fusarium oxysporum, plate medium, 50 mg/L, read-out: growth inhibition grade F.c): > 80%; inhibition at 50 µg/mL (Curvularia sp.): 60 to 80%; inhibition at 5 µg/mL ([1]; plate medium, 5 mg/L, read-out: growth inhibition grade P.h): > 80%; inhibition at 50 µg/mL ([1]; plate medium, 50 mg/L, read-out: growth inhibition grade P.h): > 80%; inhibition at 50 µg/mL (Coriolus versicolor): 60 to 80%; inhibition at 5 µg/mL (Alternaria alternata; Alternaria alternata, plate medium, 5 mg/L, read-out: growth inhibition grade A.m): > 80%; inhibition at 50 µg/mL (Alternaria alternata; Alternaria alternata, plate medium, 50 mg/L, read-out: growth inhibition grade A.m): > 80%; inhibition at 5 µg/mL (Rhynchosporium secalis; Rhynchosporium secalis, plate medium, 5 mg/L, read-out: growth inhibition grade R.sec): > 80%; inhibition at 50 µg/mL (Rhynchosporium secalis; Rhynchosporium secalis, plate medium, 50 mg/L, read-out: growth inhibition grade R.sec): > 80%; inhibition at 50 µg/mL (Aureobasidium sp.): 60 to 80%; inhibition at 5 µg/mL (Pyricularia oryzae; [2]): > 80%; inhibition at 50 µg/mL (Pyricularia oryzae; [2]): > 80%; inhibition at 50 µg/mL (Cladosporium sp.): 60 to 80% |
| Cc1ccc(C[C@@H]2CC[C@](C)(CCl)[C@@]2(O)Cn2cncn2)cc1 (relative stereo) [Compound I-80] | 5 (% Mycerial growth inhibition of 80% or higher) | 5 (% Mycerial growth inhibition of 80% or higher) | 5 (% Mycerial growth inhibition of 80% or higher) | 5 (% Mycerial growth inhibition of 80% or higher) | 5 (% Mycerial growth inhibition of 80% or higher) | 5 (% Mycerial growth inhibition of 80% or higher) | 5 (% Mycerial growth inhibition of 80% or higher) | 5 (% Mycerial growth inhibition of 80% or higher) | 5 (% Mycerial growth inhibition of 80% or higher) | 5 (% Mycerial growth inhibition of 80% or higher) | – | – | – | – | – | – | – | – | – | – | – |
| O[C@]1(Cn2cncn2)[C@H](Cc2ccc(Cl)cc2)CCC1(CCl)CCl (relative stereo) [Compound I-203, cis-5-(4-chlorobenzyl)-2,2-bis(chloromethyl)-1-(1H-1,2,4-triazol-1-yl)methylcyclopentanol] | – | – | – | – | – | – | – | – | – | – | 5 (% Mycerial growth inhibition of 80% or higher) | 5 (% Mycerial growth inhibition of 80% or higher) | 5 (% Mycerial growth inhibition of 80% or higher) | 5 (% Mycerial growth inhibition of 80% or higher) | 5 (% Mycerial growth inhibition of 80% or higher) | 5 (% Mycerial growth inhibition of 80% or higher) | 5 (% Mycerial growth inhibition of 80% or higher) | 5 (% Mycerial growth inhibition of 80% or higher) | 5 (% Mycerial growth inhibition of 80% or higher) | 5 (% Mycerial growth inhibition of 80% or higher) | – |
| CC1(C)CCC(Cc2ccc(Cl)cc2)C1(O)Cn1ncnc1S (racemic) [compound (2)] | – | – | – | – | – | – | – | – | – | – | 3 (% Mycelial growth inhibition of less than 60 to 40% or higher) | 4 (% Mycerial growth inhibition of less than 80 to 60% or higher) | 2 (% Mycerial growth inhibition of less than 40 to 20% or higher) | 4 (% Mycerial growth inhibition of less than 80 to 60% or higher) | 4 (% Mycerial growth inhibition of less than 80 to 60% or higher) | 4 (% Mycerial growth inhibition of less than 80 to 60% or higher) | 5 (% Mycerial growth inhibition of 80% or higher) | 5 (% Mycerial growth inhibition of 80% or higher) | 4 (% Mycerial growth inhibition of less than 80 to 60% or higher) | 4 (% Mycerial growth inhibition of less than 80 to 60% or higher) | – |
| C[C@]1(CCl)CC[C@@H](Cc2ccc(OC(F)(F)F)cc2)[C@]1(O)Cn1cncn1 (relative stereo) [Compound I-79] | 5 (% Mycerial growth inhibition of 80% or higher) | 5 (% Mycerial growth inhibition of 80% or higher) | 5 (% Mycerial growth inhibition of 80% or higher) | 5 (% Mycerial growth inhibition of 80% or higher) | 5 (% Mycerial growth inhibition of 80% or higher) | 5 (% Mycerial growth inhibition of 80% or higher) | 5 (% Mycerial growth inhibition of 80% or higher) | 5 (% Mycerial growth inhibition of 80% or higher) | 5 (% Mycerial growth inhibition of 80% or higher) | 5 (% Mycerial growth inhibition of 80% or higher) | – | – | – | – | – | – | – | – | – | – | – |

Reference: US9145351B2, “Azole derivatives, methods for producing the same, intermediate thereof, agro-horticultural agents” (KUREHA CORPORATION, priority 2009, dated 2015)
